For one assay, the target named is KAT2A (Homo sapiens, UniProt Q92830). As to the kind of experiment: KAT2A degradation, Western Blot (Jess), NCI-H1048 cells. As to conditions: NCI-H1048 cells, KAT2A, 24 h, Western Blot, vs DMSO; read-out: KAT2A NCI-H1048 DC50. Format: cell-based. On the set-up: degrader, Western blot (Jess). The procedure:
(§1) MOLM-13 cells or NCI-H1048 cells were used for Western Blot analysis of KAT2A degradation. KAT2B degradation can be measured in a similar manner with NCI-H1048 cells.
(§2) H1048 cells were maintained at 37° C. in 5% CO2 and 90% humidity in HITES medium with 5% fetal bovine serum (FBS). HITES medium was […] with the following additions: 0.005 mg/ml Insulin, 0.01 mg/ml Transferrin, 30 nM Sodium selenite, 10 nM Hydrocortisone, 10 nM beta-estradiol, and extra 2 mM L-glutamine (for final concentration of 4.5 mM). Cells were plated in full media at 1 million cells/2 mL in a 6-well tissue culture treated plate with or without compounds for 24 h at 37° C. in 5% CO2.
(§3) MOLM-13 cells or NCI-H1048 cells were washed with PBS, then lysed with RIPA buffer containing 1×protease and phosphatase inhibitors (SantaCruz Biotechnologies Cat #sc-24948A). Protein was isolated by centrifugation at 12,000×g for 10 minutes at 4° C. and supernatant was collected. Protein was quantified via Bradford assay. Samples were diluted to 4 μg lysate in 16 μL RIPA buffer and then 4 μL of Jess Sample Buffer. Samples were heated at 95° C. for 5 minutes. Samples were loaded onto 12-230 kDa Jess™ Separation Module, 8×25 capillary cartridges (SM-W004, Biotechne). Antibodies loaded were: Primary antibody for KAT2A (GCN5L2 (C26A10) Rabbit mAb (3305, CST)) and for KAT2B (PCAF (C14G9)) Rabbit mAb (3378, CST) at 1:1000 and Anti-Rabbit Detection Module for Jess™ (Cat No #DM-001, Biotechne). Signal was detected by chemiluminescence.
(§4) DC50 values were determined from percent reduction of protein as compared to the DMSO control.
For orientation: Immunoblotting shows a protein as a band on a membrane.

A further assay concerns the target KAT2B (Homo sapiens, UniProt Q92831). As to the kind of experiment: KAT2B degradation, Western Blot (Jess), NCI-H1048 cells. Further details: degrader, Western blot (Jess). As to conditions: NCI-H1048 cells, KAT2B, 24 h, Western Blot, vs DMSO; read-out: KAT2B NCI-H1048 DC50. Format: cell-based. As for the experimental part: as §1, §2, §3, §4

35 compounds from patent publication US20260306640A1, “TECHNOLOGIES TARGETING CELL STATES” (Auron Therapeutics, Inc., priority 2023, published 2026) can be followed below.

Sequence of KAT2B (Q92831 whole entry): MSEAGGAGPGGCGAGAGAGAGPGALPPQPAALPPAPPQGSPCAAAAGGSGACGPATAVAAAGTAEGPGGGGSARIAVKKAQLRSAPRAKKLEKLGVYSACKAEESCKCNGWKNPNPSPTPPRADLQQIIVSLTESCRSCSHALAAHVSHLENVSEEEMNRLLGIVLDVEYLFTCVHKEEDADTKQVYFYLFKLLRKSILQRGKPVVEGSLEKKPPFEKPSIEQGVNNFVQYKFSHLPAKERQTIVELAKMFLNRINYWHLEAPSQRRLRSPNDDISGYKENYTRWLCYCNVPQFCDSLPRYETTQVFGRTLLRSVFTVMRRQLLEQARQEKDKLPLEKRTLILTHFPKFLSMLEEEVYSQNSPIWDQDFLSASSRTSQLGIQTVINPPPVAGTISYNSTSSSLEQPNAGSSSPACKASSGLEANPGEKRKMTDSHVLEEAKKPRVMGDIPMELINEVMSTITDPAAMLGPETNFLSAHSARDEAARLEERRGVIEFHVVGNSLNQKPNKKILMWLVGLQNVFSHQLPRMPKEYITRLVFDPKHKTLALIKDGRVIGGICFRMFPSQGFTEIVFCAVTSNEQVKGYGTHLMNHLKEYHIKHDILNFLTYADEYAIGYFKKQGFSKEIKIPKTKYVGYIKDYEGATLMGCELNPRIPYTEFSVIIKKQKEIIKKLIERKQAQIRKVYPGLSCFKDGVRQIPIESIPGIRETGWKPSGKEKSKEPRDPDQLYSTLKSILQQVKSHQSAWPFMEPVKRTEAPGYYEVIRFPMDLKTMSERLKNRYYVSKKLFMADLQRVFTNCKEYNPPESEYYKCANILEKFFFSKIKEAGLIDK
Sequence of KAT2A (Q92830 whole entry): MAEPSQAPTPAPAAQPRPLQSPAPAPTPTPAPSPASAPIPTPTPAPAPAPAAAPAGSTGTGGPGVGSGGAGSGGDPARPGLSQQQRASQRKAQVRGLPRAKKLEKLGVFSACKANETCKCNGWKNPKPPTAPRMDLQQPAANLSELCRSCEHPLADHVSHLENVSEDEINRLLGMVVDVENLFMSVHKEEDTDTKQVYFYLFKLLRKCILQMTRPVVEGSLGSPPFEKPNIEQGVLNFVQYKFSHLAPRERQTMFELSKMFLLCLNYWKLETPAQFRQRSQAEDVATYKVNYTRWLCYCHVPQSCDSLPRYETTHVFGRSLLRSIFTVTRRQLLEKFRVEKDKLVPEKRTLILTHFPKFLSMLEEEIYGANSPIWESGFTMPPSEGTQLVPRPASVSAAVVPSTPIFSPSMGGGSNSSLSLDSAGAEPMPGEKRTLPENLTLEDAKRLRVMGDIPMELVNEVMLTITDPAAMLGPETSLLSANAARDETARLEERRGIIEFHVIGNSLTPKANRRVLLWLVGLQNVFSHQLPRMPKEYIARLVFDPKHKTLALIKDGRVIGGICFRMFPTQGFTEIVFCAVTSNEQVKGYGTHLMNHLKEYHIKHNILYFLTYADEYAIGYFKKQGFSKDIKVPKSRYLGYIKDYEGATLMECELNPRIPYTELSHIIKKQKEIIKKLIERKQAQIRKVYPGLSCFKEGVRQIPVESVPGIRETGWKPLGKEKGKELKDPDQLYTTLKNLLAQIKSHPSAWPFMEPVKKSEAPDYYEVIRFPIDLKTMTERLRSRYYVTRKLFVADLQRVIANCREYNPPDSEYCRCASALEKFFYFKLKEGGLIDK

On to `CN1C[C@H](Nc2cnn(C)c(=O)c2Cl)C[C@H](c2ccc(C(=O)N3CCC(Oc4ccc(C5CCC(=O)NC5=O)c(F)c4)CC3)cc2)C1` (stereo partly shown) [Compound 203], for which the DC50 (as a rule, the midpoint of the concentration-degradation curve) at KAT2A was under 1 nM; at KAT2B, 1 to 30 nM.
The like results for `CN1C[C@H](Nc2cnn(C)c(=O)c2Br)C[C@H](c2ccc(C(=O)N3CCN(C4CCC(N5CCC(=O)NC5=O)CC4)CC3)cc2)C1` (stereo partly shown) [Compound 204] were, in that order, over 30 nM and over 30 nM.
The corresponding values for `CN1C[C@H](Nc2cnn(C)c(=O)c2Br)C[C@H](c2ccc(C(=O)N3CCN(Cc4cnn(C5CCC(=O)NC5=O)c4)CC3)cc2)C1` (stereo partly shown) [Compound 205] are over 30 nM and over 30 nM.
In the case of `CN1C[C@H](Nc2cnn(C)c(=O)c2Br)C[C@H](c2ccc(CN3CCN(C4CCC(N5CCC(=O)NC5=O)CC4)CC3)cc2)C1` (stereo partly shown) [Compound 206], the DC50 on KAT2A and at KAT2B was over 30 nM in each case.
In the case of `CN1C[C@H](Nc2cnn(C)c(=O)c2Cl)C[C@H](c2ccc(C(=O)N3CCC4(CC3)CCN(c3cnn(C5CCC(=O)NC5=O)c3)CC4)cc2)C1` (stereo partly shown) [Compound 207], the DC50 was under 1 nM on KAT2A and over 30 nM at KAT2B.
The like results for `CN1C[C@H](Nc2cnn(C)c(=O)c2Cl)C[C@H](c2ccc(C(=O)N3CCC4(CC3)CCN(c3ccc5c(c3)oc(=O)n5C3CCC(=O)NC3=O)CC4)cc2)C1` (stereo partly shown) [Compound 209] were, in that order, under 1 nM and under 1 nM.
The corresponding values for `CN1C[C@H](Nc2cnn(C)c(=O)c2Br)C[C@H](c2ccc(C(=O)N3CCC4(CC3)CCN(c3cnn(C5CCC(=O)NC5=O)c3)CC4)cc2)C1` (stereo partly shown) [Compound 210] are 1 to 30 nM and under 1 nM.
The like results for `CN1C[C@H](Nc2cnn(C)c(=O)c2Br)C[C@H](c2ccc(C(=O)N3CCC4(CC3)CCN(c3ccc5c(C6CCC(=O)NC6=O)nn(C)c5c3)CC4)cc2)C1` (stereo partly shown) [Compound 211] were, in that order, under 1 nM and under 1 nM.
With `CN1C[C@H](Nc2cnn(C)c(=O)c2Br)C[C@H](c2ccc(C(=O)N3CCC4(CC3)CCN(c3ccc5nnn(C6CCC(=O)NC6=O)c5c3)CC4)cc2)C1` (stereo partly shown) [Compound 212], the 50% degradation concentration (DC50) was 1 to 30 nM on KAT2A and over 30 nM at KAT2B.
The corresponding values for `Cc1cc(N2CCC3(CCN(C(=O)c4ccc([C@H]5C[C@@H](Nc6c(F)nn(C)c(=O)c6Br)CN(C)C5)cc4)CC3)CC2)ccc1C1CCC(=O)NC1=O` (stereo partly shown) [Compound 213] are under 1 nM and 1 to 30 nM.
The like results for `CN1C[C@H](Nc2cnn(C)c(=O)c2Cl)C[C@H](c2ccc(C(=O)N3CCC4(CC3)CCN(c3ccc5nnn(C6CCC(=O)NC6=O)c5c3)CC4)cc2)C1` (stereo partly shown) [Compound 214] were, in that order, 1 to 30 nM and over 30 nM.
Consider `CN1C[C@H](Nc2cnn(C)c(=O)c2Cl)C[C@H](c2ccc(C(=O)N3CCC4(CCN(Cc5ccc(C6CCC(=O)NC6=O)c(F)c5)CC4)CC3)cc2)C1` (stereo partly shown) [Compound 215], for which the 50% degradation concentration (DC50) on KAT2A and at KAT2B was under 1 nM throughout.
On to `CCn1ncc(N[C@@H]2C[C@H](c3ccc(C(=O)N4CCC5(CC4)CCN(c4ccc(C6CCC(=O)NC6=O)c(C)c4)CC5)cc3)CN(C)C2)c(Br)c1=O` (stereo partly shown) [Compound 216], for which the half-maximal degradation concentration (DC50) at KAT2A and on KAT2B was under 1 nM each time.
Turning to `CN1C[C@H](Nc2cnn(C)c(=O)c2Br)C[C@H](c2ccc(C(=O)N3CCC4(CC3)CCN(c3ccn(C5CCC(=O)NC5=O)c(=O)c3)CC4)cc2)C1` (stereo partly shown) [Compound 217], the DC50 on KAT2A is 1 to 30 nM; at KAT2B, over 30 nM.
The like results for `Cc1cc(C2CCC(=O)NC2=O)c(F)cc1N1CCC2(CCN(C(=O)c3ccc([C@H]4C[C@@H](Nc5cnn(C)c(=O)c5Cl)CN(C)C4)cc3)CC2)CC1` (stereo partly shown) [Compound 218] were, in that order, under 1 nM and 1 to 30 nM.
The corresponding values for `CN1C[C@H](Nc2cnn(C)c(=O)c2Br)C[C@H](c2ccc(C(=O)N3CCC4(CC3)CCN(c3ccc(C5CCC(=O)NC5=O)cc3C(F)(F)F)CC4)cc2)C1` (stereo partly shown) [Compound 220] are under 1 nM and 1 to 30 nM.
Consider `CN1C[C@H](Nc2cnn(C)c(=O)c2Br)C[C@H](c2ccc(C(=O)N3CCC4(CC3)CCN(c3ccc(C5CCC(=O)NC5=O)c(C(F)(F)F)c3)CC4)cc2)C1` (stereo partly shown) [Compound 221], for which the DC50 at KAT2A and on KAT2B was over 30 nM each time.
Regarding `CN1C[C@H](Nc2cnn(C)c(=O)c2Cl)C[C@H](c2ccc(C(=O)N3CCC4(CC3)CCN(c3ccc(C5CCC(=O)NC5=O)c(C(F)(F)F)c3)CC4)cc2)C1` (stereo partly shown) [Compound 222], the DC50 on KAT2A and at KAT2B was over 30 nM in each case.
Consider `Cc1c(N[C@@H]2C[C@H](c3ccc(C(=O)N4CCC5(CC4)CCN(c4ccc(C6CCC(=O)NC6=O)c(C(F)(F)F)c4)CC5)cc3)CN(C)C2)cnn(C)c1=O` (stereo partly shown) [Compound 224], for which the DC50 at KAT2A and on KAT2B was over 30 nM throughout.
In the case of `Cc1c(N[C@@H]2C[C@H](c3ccc(C(=O)N4CCC5(CC4)CCN(c4ccc(C6CCC(=O)NC6=O)cc4F)CC5)cc3)CN(C)C2)cnn(C)c1=O` (stereo partly shown) [Compound 225], the 50% degradation concentration (DC50) on KAT2A is under 1 nM; at KAT2B, 1 to 30 nM.
The like results for `Cc1c(N[C@@H]2C[C@H](c3ccc(C(=O)N4CCC5(CC4)CCN(c4ccc(C6CCC(=O)NC6=O)cc4C(F)(F)F)CC5)cc3)CN(C)C2)cnn(C)c1=O` (stereo partly shown) [Compound 226] were, in that order, under 1 nM and 1 to 30 nM.
With `CN1C[C@H](Nc2cnn(C)c(=O)c2Cl)C[C@H](c2ccc(C(=O)N3CCC4(CC3)CCN(c3ccc(C5CCC(=O)NC5=O)cc3C(F)(F)F)CC4)cc2)C1` (stereo partly shown) [Compound 227], the DC50 on KAT2A was under 1 nM; at KAT2B, 1 to 30 nM.
In the case of `Cc1c(N[C@@H]2C[C@H](c3ccc(C(=O)N4CCC5(CC4)CCN(c4cc(C(F)(F)F)c(C6CCC(=O)NC6=O)cn4)CC5)cc3)CN(C)C2)cnn(C)c1=O` (stereo partly shown) [Compound 230], the DC50 on KAT2A and on KAT2B was 1 to 30 nM each time.
Consider `CN1C[C@H](Nc2cnn(C)c(=O)c2Cl)C[C@H](c2ccc(C(=O)N3CCC4(CC3)CCN(c3cc(C5CCC(=O)NC5=O)ccn3)CC4)cc2)C1` (stereo partly shown) [Compound 234], for which the DC50 on KAT2A and on KAT2B was under 1 nM in each case.
In the case of `Cc1c(N2CCC3(CCN(C(=O)c4ccc([C@H]5C[C@@H](Nc6cnn(C)c(=O)c6Br)CN(C)C5)cc4)CC3)CC2)ccc(C2CCC(=O)NC2=O)c1F` (stereo partly shown) [Compound 235], the DC50 at KAT2A and on KAT2B was under 1 nM each time.
In the case of `Cc1c(N2CCC3(CCN(C(=O)c4ccc([C@H]5C[C@@H](Nc6cnn(C)c(=O)c6C)CN(C)C5)cc4)CC3)CC2)ccc(C2CCC(=O)NC2=O)c1F` (stereo partly shown) [Compound 236], the DC50 was under 1 nM at KAT2A and 1 to 30 nM on KAT2B.
The corresponding values for `Cc1c(N2CCC3(CCN(C(=O)c4ccc([C@H]5C[C@@H](Nc6cnn(C)c(=O)c6Cl)CN(C)C5)cc4)CC3)CC2)ccc(C2CCC(=O)NC2=O)c1F` (stereo partly shown) [Compound 237] are under 1 nM and 1 to 30 nM.
The like results for `Cc1c(N[C@@H]2C[C@H](c3ccc(C(=O)N4CCC5(CC4)CCN(c4ccc(C6CCC(=O)NC6=O)nc4)CC5)cc3)CN(C)C2)cnn(C)c1=O` (stereo partly shown) [Compound 241] were, in that order, under 1 nM and 1 to 30 nM.
With `Cc1cc(N2CCC3(CCN(C(=O)c4ccc([C@H]5C[C@@H](Nc6cnn(C)c(=O)c6C)CN(C)C5)cc4)CC3)CC2)c(F)cc1C1CCC(=O)NC1=O` (stereo partly shown) [Compound 244], the DC50 on KAT2A is 1 to 30 nM; on KAT2B, over 30 nM.
The corresponding values for `Cc1cc(N2CCC3(CCN(C(=O)c4ccc([C@H]5C[C@@H](Nc6cnn(C)c(=O)c6C)CN(C)C5)cc4)CC3)CC2)cnc1C1CCC(=O)NC1=O` (stereo partly shown) [Compound 245] are under 1 nM and 1 to 30 nM.
Turning to `Cc1cc(N2CCC3(CCN(C(=O)c4ccc([C@H]5C[C@@H](Nc6cnn(C)c(=O)c6Br)CN(C)C5)cc4)CC3)CC2)cnc1C1CCC(=O)NC1=O` (stereo partly shown) [Compound 246], the DC50 at KAT2A and at KAT2B was under 1 nM in each case.
In the case of `Cc1cc(N2CCC3(CCN(C(=O)c4ccc([C@H]5C[C@@H](Nc6cnn(C)c(=O)c6Cl)CN(C)C5)cc4)CC3)CC2)cnc1C1CCC(=O)NC1=O` (stereo partly shown) [Compound 247], the DC50 at KAT2A is under 1 nM; on KAT2B, 1 to 30 nM.
The corresponding values for `Cc1cc(C2CCC(=O)NC2=O)ccc1N1CCC2(CCN(C(=O)c3ccc([C@H]4C[C@@H](Nc5cnn(C)c(=O)c5Br)CN(C)C4)cc3)CC2)CC1` (stereo partly shown) [Compound 248] are under 1 nM and 1 to 30 nM.
The like results for `Cc1cc(C2CCC(=O)NC2=O)ccc1N1CCC2(CCN(C(=O)c3ccc([C@H]4C[C@@H](Nc5cnn(C)c(=O)c5C)CN(C)C4)cc3)CC2)CC1` (stereo partly shown) [Compound 249] were, in that order, under 1 nM and 1 to 30 nM.
The corresponding values for `CN1C[C@H](Nc2cnn(C)c(=O)c2Cl)C[C@H](c2ccc(C(=O)N3CCC4(CC3)CCN(c3ccc(C5CCC(=O)NC5=O)c(F)c3F)CC4)cc2)C1` (stereo partly shown) [Compound 251] are under 1 nM and 1 to 30 nM.
